The results in this text go back to patent US20240002416A1 (Rheinische-Friedrich-Wilhelms-Universität Bonn, priority 2020, published 2024).

In data set [1] the target is T1, human MRGPRX4-83L (Homo sapiens, UniProt Q96LA9).
T1 construct: host or cells: CHO β-arrestin cells
Nature of the data set: Calcium assay (human MRGPRX4 83L), recombinant astrocytes. Type of data set: cell-based. To be noted: for EC50: calcium mobilization, MRGPRX4-83L, read-out: EC50 ± SEM; for Emax: efficacy based on maximal effect of 1 μM B-16 (set as 100%), read-out: Emax. As to the method: (§1) For β-arrestin recruitment assays, recombinant Chinese hamster ovary (CHO) cells expressing the human MRGPRX4 were used (DiscoverX/Eurofins) which allowed to measure β-galactosidase complementation upon β-arrestin recruitment. For calcium mobilization assays, recombinant astrocytes expressing MRGPX4-83L, or LN229 glioblastoma cells natively expressing the MRGPRX4-83S, were used.
(§2) The assays were performed as previously described for other rhodopsin-like GPCRs (Müller, C.E.; 8-Benzamidochromen-4-one-2-carboxylic acids: potent and selective agonists for the orphan G protein-coupled receptor GPR35. J. Med. Chem. 2013, 56:5182-97; Müller, C.E. Molecular Recognition of Agonists and Antagonists by the Nucleotide-Activated G Protein-Coupled P2Y2 Receptor. J. Med. Chem. 2017, 60:8425-8440).

Data set [2] concerns the target T1, human MRGPRX4-83L. Nature of the data set: β-arrestin assay (CHO β-arrestin ARMS1-ProLink 2 human MRGPRX4 83L). The data set is classed as cell-based. To be noted: for Emax: efficacy based on maximal effect of 100 nM B-16 (set as 100%), read-out: Emax; for EC50: β-arrestin recruitment, CHO cells, MRGPRX4-83L, read-out: EC50 ± SEM; for IC50: inhibition of the effect of 2.6 μM B-16. Here is the method: as §1, §2
Background: Arrestin recruitment assays detect the binding of arrestin to an activated receptor.

Data set [3] has as its target T2, MRGPRX4-83S (Homo sapiens, UniProt Q96LA9, L83S). Nature of the data set: β-arrestin assay (CHO β-arrestin human MRGPRX4-83S). Type of data set: cell-based. Set-up: host or cells: CHO β-arrestin cells. To be noted: for EC50: β-arrestin recruitment, CHO cells, MRGPRX4-83S, read-out: EC50 ± SEM; for Emax: efficacy based on 100 nM B-16 (set as 100%), read-out: Emax. As to the method: as §1, §2

Data set [4] has as its target T2, MRGPRX4-83S. Nature of the data set: Calcium assay (human glioblastoma LN229 cells expressing the MRGPRX4-83S). Type of data set: cell-based. Set-up: LN229 glioblastoma cells natively expressing the MRGPRX4-83S; endogenous in cells; host or cells: LN229 human glioblastoma cells. To be noted: for EC50: calcium mobilization, LN229 cells, MRGPRX4-83S, read-out: EC50 ± SEM; for Emax: LN-229, efficacy based on 30 μM H-1 (set as 100%), read-out: Emax. As to the method: as §1, §2

The mark [5] stands for this setting: Table 1, means of 3-4 experiments.

T1 sequence (Q96LA9 whole entry): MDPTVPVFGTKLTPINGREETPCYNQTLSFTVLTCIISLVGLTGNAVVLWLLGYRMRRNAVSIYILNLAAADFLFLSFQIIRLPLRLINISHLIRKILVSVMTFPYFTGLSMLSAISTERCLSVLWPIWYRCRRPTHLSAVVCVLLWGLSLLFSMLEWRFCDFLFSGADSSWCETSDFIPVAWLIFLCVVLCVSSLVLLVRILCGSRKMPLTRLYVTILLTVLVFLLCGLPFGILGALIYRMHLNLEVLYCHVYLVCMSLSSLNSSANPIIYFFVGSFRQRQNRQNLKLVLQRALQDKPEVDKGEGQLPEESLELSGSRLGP
T2 sequence (Q96LA9 whole entry L83S): as the sequence (Q96LA9 whole entry) above, with L83S counted along it

By melting point is commonly meant the temperature, or range, at which the solid turns liquid. A word on the EC50: it is the concentration needed to bring the measured effect to its halfway point. The term Emax denotes the size of the effect at its maximum, as opposed to the concentration needed. In turn, `C#CCn1c(=O)c2c(nc(CCc3ccccc3Br)n2CC)n(CCCCP(=O)(O)O)c1=O` [B-19, (4-(8-(2-Bromophenethyl)-7-ethyl-2,6-dioxo-1-(prop-2-yn-1-yl)-1,2,6,7-tetrahydro-3H-purin-3-yl)butyl)phosphonic acid] yielded a melting point of 192 to 195 °C. Besides, at human MRGPRX4-83L [1] (Table 1), the EC50 was determined as 4.26 ± 0.56 nM and the Emax was found to be 115%. Further, the Emax on human MRGPRX4-83L [2] (Table 1) was 144%. In addition, the EC50 on human MRGPRX4-83L [2] (setting [5]) is 25.9 ± 7.9 nM.
For `C#CCn1c(=O)c2c(nc(CCc3ccccc3Br)n2CCO)n(CCCCP(=O)(O)O)c1=O` [B-20, (4-(8-(2-Bromophenethyl)-7-(2-hydroxyethyl)-2,6-dioxo-1-(prop-2-yn-1-yl)-1,2,6,7-tetrahydro-3H-purin-3-yl)butyl)phosphonic acid], in that order: 157 to 160 °C, 1.86 ± 0.45 nM, 103%, 124% and 32.9 ± 7.5 nM.
For `C#CCn1c(=O)c2c(nc(CCc3ccccc3Br)n2CC2CC2)n(CCCCP(=O)(O)O)c1=O` [B-21, (4-(8-(2-Bromophenethyl)-7-(cyclopropylmethyl)-2,6-dioxo-1-(prop-2-yn-1-yl)-1,2,6,7-tetrahydro-3H-purin-3-yl)butyl)phosphonic acid], in that order: 181 to 184 °C, 2.02 ± 0.62 nM, 109%, 163% and 89.8 ± 20.9 nM.
The matching figures for `C#CCn1c(=O)c2c(nc(CCc3ccccc3Br)n2CCC)n(CCCCP(=O)(O)O)c1=O` [B-22, (4-(8-(2-Bromophenethyl)-2,6-dioxo-1-(prop-2-yn-1-yl)-7-propyl-1,2,6,7-tetrahydro-3H-purin-3-yl)butyl)phosphonic acid]: 178 to 181 °C, 17.8 ± 6.2 nM, 119%, 176% and 208 ± 49 nM.
As for `C#CCn1c(=O)c2c(nc(CCc3ccccc3Br)n2Cc2ccccc2)n(CCCCP(=O)(O)O)c1=O` [B-23, (4-(7-Benzyl-8-(2-bromophenethyl)-2,6-dioxo-1-(prop-2-yn-1-yl)-1,2,6,7-tetrahydro-3H-purin-3-yl)butyl)phosphonic acid], the melting point was 126 to 129 °C. Besides, at human MRGPRX4-83L [1] (Table 1), the EC50 came to 5.03 ± 1.59 nM and the Emax was determined as 103%. Moreover, at human MRGPRX4-83L [2] (Table 1), the Emax came out at 164%. At human MRGPRX4-83L [2] (setting [5]), the EC50 stood at 59.9 ± 12.8 nM.
As for `C#CCn1c(=O)c2[nH]c(CCc3ccccc3F)nc2n(CCCCP(=O)(O)O)c1=O` [B-24, (4-(8-(2-Fluorophenethyl)-2,6-dioxo-1-(prop-2-yn-1-yl)-1,2,6,7-tetrahydro-3H-purin-3-yl)butyl) phosphonic acid], the melting point is 239 to 241 °C. Further, at human MRGPRX4-83L [1] (Table 4), the EC50 was determined as 1420 ± 290 nM and the Emax came out at 100%. Besides, on human MRGPRX4-83L [2] (Table 4), the Emax was 98% and the EC50 was found to be 8190 ± 1810 nM.
As for `C#CCn1c(=O)c2[nH]c(CCc3ccccc3I)nc2n(CCCCP(=O)(O)O)c1=O` [B-25, (4-(8-(2-Iodophenethyl)-2,6-dioxo-1-(prop-2-yn-1-yl)-1,2,6,7-tetrahydro-3H-purin-3-yl)butyl) phosphonic acid], the melting point fell in the range of 227 to 229 °C. Besides, at human MRGPRX4-83L [1] (Table 4), the EC50 was found to be 43.1 ± 9.4 nM and the Emax is 103%. Further, at human MRGPRX4-83L [2] (Table 4), the maximal effect (Emax) stood at 96% and the EC50 was 381 ± 112 nM.
`C#CCn1c(=O)c2c(nc(Cc3cccc4ccccc34)n2CC)n(CCCCP(=O)(O)O)c1=O` [B-58, (4-(7-Ethyl-8-(naphthalen-1-ylmethyl)-2,6-dioxo-1-(prop-2-yn-1-yl)-1,2,6,7-tetrahydro-3H-purin-3-yl)butyl)phosphonic acid] registered a melting point of 138 to 140 °C.
For orientation: IC50 means the midpoint of a concentration-inhibition curve. For the molecule `C#CCn1c(=O)c2c(nc(Cc3ccc4ccccc4c3)n2CC)n(CCCCP(=O)(O)O)c1=O` [B-58], the EC50 at MRGPRX4-83S [3] (Table 3) was > 100000 nM; on human MRGPRX4-83L [1] (Table 4), > 10000 nM; at human MRGPRX4-83L [2] (Table 4), > 10000 nM; at MRGPRX4-83S [4] (Table 3) it was > 10000 nM. For the same molecule, the IC50 at MRGPRX4-83S [4] is 31.7 ± 19.1 nM.
Take `C#CCn1c(=O)c2c(nc(CCc3ccccc3Br)n2C)n(CCCCP(=O)(O)OCC)c1=O` [D-1, Ethyl hydrogen (4-(8-(2-bromophenethyl)-7-methyl-2,6-dioxo-1-(prop-2-yn-1-yl)-1,2,6,7-tetrahydro-3H-purin-3-yl)butyl)phosphonate]: the Emax at MRGPRX4-83S [3] (Table 2) is 120%; at human MRGPRX4-83L [1] (Table 1), 115%; on human MRGPRX4-83L [2] (Table 1), 108%; on MRGPRX4-83S [4] (Table 2), 105%. The EC50 at MRGPRX4-83S [3] (Table 2) is 114 ± 23 nM; on human MRGPRX4-83L [1] (Table 1), 55.5 ± 9 nM; on human MRGPRX4-83L [2] (setting [5]) it was 395 ± 126 nM; at MRGPRX4-83S [4] (Table 2) it was 134 ± 12 nM.
As to `C#CCn1c(=O)c2c(nc(CCc3cccc(OC)c3)n2C)n(CCCOP(=O)(O)O)c1=O` [H-1, 3-(8-(3-Methoxyphenethyl)-7-methyl-2,6-dioxo-1-(prop-2-yn-1-yl)-1,2,6,7-tetrahydro-3H-purin-3-yl)propyl dihydrogen phosphate, reference compound], the Emax on MRGPRX4-83S [3] (Table 2) was 86%; on human MRGPRX4-83L [1] (Table 1), 107%; on human MRGPRX4-83L [2] (Table 1), 97%; on MRGPRX4-83S [4] (Table 2) it was 98%. Also, the EC50 at MRGPRX4-83S [3] (Table 2) is 374 ± 111 nM; at human MRGPRX4-83L [1] (Table 1), 574 ± 179 nM; on human MRGPRX4-83L [2] (setting [5]) it was 13000 ± 4100 nM; at MRGPRX4-83S [4] (Table 2), 238 ± 11 nM.
Regarding `CCCn1c(=O)c2c(nc(CCc3cccc(OC)c3)n2C)n(CCCOP(=O)(O)O)c1=O` [H-2, 3-(8-(3-Methoxyphenethyl)-7-methyl-2,6-dioxo-1-propyl-1,2,6,7-tetrahydro-3H-purin-3-yl)propyl dihydrogen phosphate, reference compound], the EC50 is 674 ± 50 nM at MRGPRX4-83S [3] (Table 2), 2500 ± 730 nM at human MRGPRX4-83L [1] (Table 1), > 10000 nM on human MRGPRX4-83L [2] (setting [5]) and 801 ± 233 nM at MRGPRX4-83S [4] (Table 2). In addition, the values for the Emax at human MRGPRX4-83L [1] (Table 1) and on MRGPRX4-83S [4] (Table 2) were 113% and 88%, respectively. Besides, the IC50 on human MRGPRX4-83L [2] (Table 1) was > 10000 nM.
For `C#CCn1c(=O)c2[nH]c(/C=C/c3cccc(OC)c3)nc2n(CCCOP(=O)(O)O)c1=O` [H-3, (E)-3-(8-(3-Methoxystyryl)-2,6-dioxo-1-(prop-2-yn-1-yl)-1,2,6,7-tetrahydro-3H-purin-3-yl)propyl dihydrogen phosphate, reference compound], the EC50 at MRGPRX4-83S [3] (Table 2), at human MRGPRX4-83L [1] (Table 1), at human MRGPRX4-83L [2] (setting [5]) and at MRGPRX4-83S [4] (Table 2) was > 10000 nM throughout. The IC50 at human MRGPRX4-83L [1] and against human MRGPRX4-83L [2] (Table 1) was > 10000 nM each time.
In the case of `C#CCn1c(=O)c2[nH]c(/C=C/c3cccc(OC)c3)nc2n(CCCCP(=O)(O)O)c1=O` [J-1, (E)-(4-(8-(3-Methoxystyryl)-2,6-dioxo-1-(prop-2-yn-1-yl)-1,2,6,7-tetrahydro-3H-purin-3-yl)butyl)phosphonic acid], at MRGPRX4-83S [3] (Table 2), the Emax was found to be 65%. Moreover, the EC50 on MRGPRX4-83S [3] (Table 2) was 200 ± 59 nM; at human MRGPRX4-83L [1] (Table 1), > 10000 nM; at human MRGPRX4-83L [2] (setting [5]) it was > 10000 nM; at MRGPRX4-83S [4] (Table 2) it was 11.6 ± 1.3 nM.
For `CCCn1c(=O)c2[nH]c(C3CCCC3)nc2n(CCCCP(=O)(O)O)c1=O` [J-2, (4-(8-Cyclopentyl-2,6-dioxo-1-propyl-1,2,6,7-tetrahydro-3H-purin-3-yl)butyl)phosphonic acid], the Emax at MRGPRX4-83S [3] (Table 2) came out at 76%. In addition, the EC50 was 6360 ± 1630 nM on MRGPRX4-83S [3] (Table 2), > 50000 nM at human MRGPRX4-83L [1] (Table 1), > 10000 nM at human MRGPRX4-83L [2] (setting [5]) and > 10000 nM on MRGPRX4-83S [4] (Table 2). The results for the IC50 at human MRGPRX4-83L [1] and against human MRGPRX4-83L [2] (Table 1) were > 50000 nM and > 10000 nM, respectively.
Turning to `CCCn1c(=O)c2[nH]c(-c3ccccc3)nc2n(CCCCP(=O)(O)O)c1=O` [J-3, (4-(2,6-Dioxo-8-phenyl-1-propyl-1,2,6,7-tetrahydro-3H-purin-3-yl)butyl)phosphonic acid], the IC50 on MRGPRX4-83S [3], on human MRGPRX4-83L [1] and against human MRGPRX4-83L [2] (Table 1) was > 10000 nM each time. For the same molecule, the EC50 at MRGPRX4-83S [3] (Table 2), at human MRGPRX4-83L [1] (Table 1), on human MRGPRX4-83L [2] (setting [5]) and on MRGPRX4-83S [4] (Table 2) was > 10000 nM throughout.
